Test results: ChEMBL document CHEMBL5678818, “Discovery of potent SOS1 inhibitors that block RAS activation via disruption of the RAS-SOS1 interaction” (Proc Natl Acad Sci U S A, 2019)
The source made the active and inactive calls. The rule behind the calls is not given here.

Legend:
[1] = molecular target: T1, Ephrin type-A receptor 8 (Homo sapiens) (UniProt P29322); test: Inhibition of EPHA8 (unknown origin) assessed as residual activity at 100 nM by KINOMEscan analysis relative to control
T1 sequence (whole entry): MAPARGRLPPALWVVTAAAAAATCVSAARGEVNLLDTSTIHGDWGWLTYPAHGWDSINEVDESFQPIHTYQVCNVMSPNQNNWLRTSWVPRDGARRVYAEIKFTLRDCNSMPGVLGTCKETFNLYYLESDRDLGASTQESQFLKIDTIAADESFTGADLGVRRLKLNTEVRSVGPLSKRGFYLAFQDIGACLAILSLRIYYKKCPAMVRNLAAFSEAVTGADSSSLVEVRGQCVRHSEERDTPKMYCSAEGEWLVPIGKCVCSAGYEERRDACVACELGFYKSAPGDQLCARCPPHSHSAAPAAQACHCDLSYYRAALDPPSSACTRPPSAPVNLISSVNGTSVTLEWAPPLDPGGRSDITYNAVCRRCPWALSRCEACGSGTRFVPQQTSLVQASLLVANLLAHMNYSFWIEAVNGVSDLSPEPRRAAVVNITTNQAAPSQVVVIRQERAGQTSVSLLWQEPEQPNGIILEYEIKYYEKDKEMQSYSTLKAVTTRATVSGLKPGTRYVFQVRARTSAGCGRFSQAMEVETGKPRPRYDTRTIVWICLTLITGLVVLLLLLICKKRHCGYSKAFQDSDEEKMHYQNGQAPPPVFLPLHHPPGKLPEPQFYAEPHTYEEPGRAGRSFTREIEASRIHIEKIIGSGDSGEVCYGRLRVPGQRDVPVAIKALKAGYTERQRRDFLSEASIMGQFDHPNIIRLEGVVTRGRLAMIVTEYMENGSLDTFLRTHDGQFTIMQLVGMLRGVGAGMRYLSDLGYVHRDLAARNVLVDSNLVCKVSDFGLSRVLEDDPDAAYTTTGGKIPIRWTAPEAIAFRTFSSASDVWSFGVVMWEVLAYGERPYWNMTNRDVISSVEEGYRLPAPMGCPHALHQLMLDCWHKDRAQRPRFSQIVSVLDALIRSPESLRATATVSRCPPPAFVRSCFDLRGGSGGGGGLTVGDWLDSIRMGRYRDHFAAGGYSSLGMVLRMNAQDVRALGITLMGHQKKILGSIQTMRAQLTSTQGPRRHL

[2] = molecular target: T2, Serine/threonine-protein kinase haspin (Homo sapiens) (UniProt Q8TF76); test: Inhibition of HASPIN (unknown origin) assessed as residual activity at 100 nM by KINOMEscan analysis relative to control
T2 sequence (whole entry): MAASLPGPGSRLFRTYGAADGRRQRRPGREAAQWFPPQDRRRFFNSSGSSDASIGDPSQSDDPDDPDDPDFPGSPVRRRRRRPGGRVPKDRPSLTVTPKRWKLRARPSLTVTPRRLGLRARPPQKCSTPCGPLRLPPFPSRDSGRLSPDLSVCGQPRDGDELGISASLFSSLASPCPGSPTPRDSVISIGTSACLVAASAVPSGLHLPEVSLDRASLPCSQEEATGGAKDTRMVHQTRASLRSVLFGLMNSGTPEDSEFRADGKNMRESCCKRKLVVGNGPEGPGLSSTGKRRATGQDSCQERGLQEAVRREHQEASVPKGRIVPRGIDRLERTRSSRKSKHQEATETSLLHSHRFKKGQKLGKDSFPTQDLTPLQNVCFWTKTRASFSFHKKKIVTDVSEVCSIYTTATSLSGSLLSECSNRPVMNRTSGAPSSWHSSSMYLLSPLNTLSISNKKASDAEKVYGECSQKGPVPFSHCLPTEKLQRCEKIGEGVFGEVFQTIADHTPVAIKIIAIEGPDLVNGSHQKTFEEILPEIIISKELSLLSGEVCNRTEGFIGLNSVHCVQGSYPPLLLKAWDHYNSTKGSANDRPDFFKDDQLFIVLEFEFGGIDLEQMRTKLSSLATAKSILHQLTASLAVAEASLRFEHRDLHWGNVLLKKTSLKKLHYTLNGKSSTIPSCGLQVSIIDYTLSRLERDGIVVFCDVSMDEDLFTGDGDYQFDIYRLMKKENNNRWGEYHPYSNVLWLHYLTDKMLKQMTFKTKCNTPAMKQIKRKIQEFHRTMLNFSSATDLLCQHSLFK

[3] = molecular target: GTPase KRas (Homo sapiens) (UniProt P01116); test: Binding affinity to N-terminal His10-tagged wild-type human KRAS (1 to 169 residues) expressed in Escherichia coli assessed as binding at 1:1 stoichiometry at 100 uM incubated for 1 hr by native MS analysis
[4] = tested on: Tyrosine-protein kinase ABL1 (Homo sapiens), P00519 [Q252H]; test: Inhibition of phosphorylated ABL1 Q252H mutant (unknown origin) assessed as residual activity at 100 nM by KINOMEscan analysis relative to control
[5] = molecular target: Fibroblast growth factor receptor 2 (Homo sapiens) (UniProt P21802); test: Inhibition of FGFR2 (unknown origin) assessed as residual activity at 100 nM by KINOMEscan analysis relative to control
[6] = molecular target: T3, Serine/threonine-protein kinase D2 (Homo sapiens) (UniProt Q9BZL6); test: Inhibition of PRKD2 (unknown origin) assessed as residual activity at 100 nM by KINOMEscan analysis relative to control
T3 sequence (whole entry): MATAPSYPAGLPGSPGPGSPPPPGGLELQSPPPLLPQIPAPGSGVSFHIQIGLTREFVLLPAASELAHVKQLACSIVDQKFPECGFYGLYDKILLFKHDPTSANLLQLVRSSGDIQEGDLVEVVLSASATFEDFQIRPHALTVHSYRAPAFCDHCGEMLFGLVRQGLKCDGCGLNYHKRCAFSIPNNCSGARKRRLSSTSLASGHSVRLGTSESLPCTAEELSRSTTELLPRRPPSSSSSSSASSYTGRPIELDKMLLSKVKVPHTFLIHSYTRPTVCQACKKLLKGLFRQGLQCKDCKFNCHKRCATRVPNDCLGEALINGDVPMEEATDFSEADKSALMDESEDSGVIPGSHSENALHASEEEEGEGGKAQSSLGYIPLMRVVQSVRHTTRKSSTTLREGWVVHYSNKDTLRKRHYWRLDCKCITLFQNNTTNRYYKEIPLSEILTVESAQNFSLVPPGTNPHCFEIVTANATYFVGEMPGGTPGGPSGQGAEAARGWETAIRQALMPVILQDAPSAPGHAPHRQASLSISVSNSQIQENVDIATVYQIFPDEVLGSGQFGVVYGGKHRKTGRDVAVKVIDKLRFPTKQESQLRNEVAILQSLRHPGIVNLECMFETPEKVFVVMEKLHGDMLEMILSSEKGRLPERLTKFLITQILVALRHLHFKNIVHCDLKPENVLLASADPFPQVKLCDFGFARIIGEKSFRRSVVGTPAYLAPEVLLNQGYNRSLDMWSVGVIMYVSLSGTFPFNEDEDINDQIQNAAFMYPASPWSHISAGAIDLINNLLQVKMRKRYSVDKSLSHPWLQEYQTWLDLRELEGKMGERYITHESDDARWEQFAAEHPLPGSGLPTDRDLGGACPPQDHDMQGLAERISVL

## COc1cc2ncnc(N[C@H](C)c3cccc4ccccc34)c2cc1OC
[1]
  Activity: 75%
[2]
  Activity: 95%
[3]
  Activity: inactive
[4]
  Activity: 96%
[5]
  Activity: 80%
[6]
  Activity: 80%
